{
  "source": "patent US11572590B2",
  "about": "“Methods for evaluating tumor cell spheroids using 3D microfluidic cell culture device” (Dana-Farber Cancer Institute, Inc., priority 2017, dated 2023)",
  "assay_in_all_cases": "SelectScreen Kinase Profiling, single point inhibition and IC50 for off-target kinases",
  "format_in_all_cases": "biochemical",
  "key": {"off-target kinases [1]": {"target": "off-target kinases (Homo sapiens, UniProt P05771)", "sequence (P05771 whole entry)": "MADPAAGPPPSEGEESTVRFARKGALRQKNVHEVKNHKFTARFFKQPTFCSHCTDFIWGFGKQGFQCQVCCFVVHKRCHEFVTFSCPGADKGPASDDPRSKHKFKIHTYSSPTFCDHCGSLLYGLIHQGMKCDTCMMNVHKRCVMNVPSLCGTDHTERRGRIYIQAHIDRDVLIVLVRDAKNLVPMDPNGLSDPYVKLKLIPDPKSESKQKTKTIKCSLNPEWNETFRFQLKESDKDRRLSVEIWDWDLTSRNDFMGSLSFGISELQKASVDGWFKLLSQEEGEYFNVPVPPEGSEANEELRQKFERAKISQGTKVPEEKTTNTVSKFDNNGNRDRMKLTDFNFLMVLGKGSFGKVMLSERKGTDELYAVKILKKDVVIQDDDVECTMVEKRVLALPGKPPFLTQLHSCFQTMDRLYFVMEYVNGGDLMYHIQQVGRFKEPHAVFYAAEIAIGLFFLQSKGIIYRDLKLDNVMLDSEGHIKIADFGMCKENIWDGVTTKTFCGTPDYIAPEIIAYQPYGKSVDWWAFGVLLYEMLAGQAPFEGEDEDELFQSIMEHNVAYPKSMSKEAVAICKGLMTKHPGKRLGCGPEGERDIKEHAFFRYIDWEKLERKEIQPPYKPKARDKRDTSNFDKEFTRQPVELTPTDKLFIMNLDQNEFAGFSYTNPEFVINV", "conditions": "PRKCB1 (PKC beta I), ZLYTE, ATP Km app"}, "off-target kinases [2]": {"target": "off-target kinases (Homo sapiens, UniProt P08581, M1250T)", "sequence (P08581 25-1390 M1250T)": "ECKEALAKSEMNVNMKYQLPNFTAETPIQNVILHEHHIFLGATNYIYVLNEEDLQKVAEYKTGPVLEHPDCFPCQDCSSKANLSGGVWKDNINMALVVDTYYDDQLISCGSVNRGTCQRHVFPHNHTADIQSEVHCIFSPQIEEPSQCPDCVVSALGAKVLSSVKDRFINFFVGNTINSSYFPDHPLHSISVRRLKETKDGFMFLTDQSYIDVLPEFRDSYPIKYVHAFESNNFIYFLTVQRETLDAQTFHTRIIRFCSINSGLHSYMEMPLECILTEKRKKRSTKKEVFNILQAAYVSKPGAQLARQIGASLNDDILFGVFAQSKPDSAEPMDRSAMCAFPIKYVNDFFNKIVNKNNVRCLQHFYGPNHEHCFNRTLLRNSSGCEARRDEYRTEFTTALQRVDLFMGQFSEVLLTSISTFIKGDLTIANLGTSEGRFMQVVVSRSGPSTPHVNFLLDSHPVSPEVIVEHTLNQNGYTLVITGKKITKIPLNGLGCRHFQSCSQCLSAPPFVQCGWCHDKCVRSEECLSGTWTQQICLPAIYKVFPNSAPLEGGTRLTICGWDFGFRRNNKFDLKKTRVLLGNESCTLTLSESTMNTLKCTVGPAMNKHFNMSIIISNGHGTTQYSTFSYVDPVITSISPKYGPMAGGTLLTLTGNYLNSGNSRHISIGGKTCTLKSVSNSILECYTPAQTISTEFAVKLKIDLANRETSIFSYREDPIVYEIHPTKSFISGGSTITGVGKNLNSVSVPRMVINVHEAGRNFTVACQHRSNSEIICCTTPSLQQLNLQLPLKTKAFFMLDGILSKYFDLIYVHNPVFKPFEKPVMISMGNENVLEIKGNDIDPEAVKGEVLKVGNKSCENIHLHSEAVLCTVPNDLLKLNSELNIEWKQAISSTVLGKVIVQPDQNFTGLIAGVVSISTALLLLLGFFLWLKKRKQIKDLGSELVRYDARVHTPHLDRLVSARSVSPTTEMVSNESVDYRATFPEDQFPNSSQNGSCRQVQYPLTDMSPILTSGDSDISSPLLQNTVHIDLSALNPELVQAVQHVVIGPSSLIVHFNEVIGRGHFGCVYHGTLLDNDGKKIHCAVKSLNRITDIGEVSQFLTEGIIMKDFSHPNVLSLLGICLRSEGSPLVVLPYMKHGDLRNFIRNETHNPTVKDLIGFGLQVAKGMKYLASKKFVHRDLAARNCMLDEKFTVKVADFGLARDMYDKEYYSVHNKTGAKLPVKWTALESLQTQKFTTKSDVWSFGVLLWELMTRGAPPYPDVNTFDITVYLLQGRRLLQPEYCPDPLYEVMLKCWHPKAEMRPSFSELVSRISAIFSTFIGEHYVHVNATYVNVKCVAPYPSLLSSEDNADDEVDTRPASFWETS", "conditions": "MET M1250T, mutant y, ZLYTE, ATP Km app"}, "off-target kinases [3]": {"target": "off-target kinases (Homo sapiens, UniProt P48729)", "sequence (P48729 whole entry)": "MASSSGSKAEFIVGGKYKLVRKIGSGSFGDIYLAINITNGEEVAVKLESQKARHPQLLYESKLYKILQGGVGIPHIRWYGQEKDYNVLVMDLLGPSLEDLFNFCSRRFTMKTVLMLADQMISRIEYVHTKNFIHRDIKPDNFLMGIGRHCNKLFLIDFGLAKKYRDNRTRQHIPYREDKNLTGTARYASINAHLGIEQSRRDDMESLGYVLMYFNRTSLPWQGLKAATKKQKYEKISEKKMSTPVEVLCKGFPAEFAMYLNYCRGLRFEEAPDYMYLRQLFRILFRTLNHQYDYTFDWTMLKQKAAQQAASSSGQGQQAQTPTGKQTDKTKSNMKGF", "conditions": "CSNK1A1 (CK1 alpha 1), ZLYTE, ATP Km app"}, "off-target kinases [4]": {"target": "T1, off-target kinases (Homo sapiens, UniProt P54753)", "T1 sequence (P54753 34-998)": "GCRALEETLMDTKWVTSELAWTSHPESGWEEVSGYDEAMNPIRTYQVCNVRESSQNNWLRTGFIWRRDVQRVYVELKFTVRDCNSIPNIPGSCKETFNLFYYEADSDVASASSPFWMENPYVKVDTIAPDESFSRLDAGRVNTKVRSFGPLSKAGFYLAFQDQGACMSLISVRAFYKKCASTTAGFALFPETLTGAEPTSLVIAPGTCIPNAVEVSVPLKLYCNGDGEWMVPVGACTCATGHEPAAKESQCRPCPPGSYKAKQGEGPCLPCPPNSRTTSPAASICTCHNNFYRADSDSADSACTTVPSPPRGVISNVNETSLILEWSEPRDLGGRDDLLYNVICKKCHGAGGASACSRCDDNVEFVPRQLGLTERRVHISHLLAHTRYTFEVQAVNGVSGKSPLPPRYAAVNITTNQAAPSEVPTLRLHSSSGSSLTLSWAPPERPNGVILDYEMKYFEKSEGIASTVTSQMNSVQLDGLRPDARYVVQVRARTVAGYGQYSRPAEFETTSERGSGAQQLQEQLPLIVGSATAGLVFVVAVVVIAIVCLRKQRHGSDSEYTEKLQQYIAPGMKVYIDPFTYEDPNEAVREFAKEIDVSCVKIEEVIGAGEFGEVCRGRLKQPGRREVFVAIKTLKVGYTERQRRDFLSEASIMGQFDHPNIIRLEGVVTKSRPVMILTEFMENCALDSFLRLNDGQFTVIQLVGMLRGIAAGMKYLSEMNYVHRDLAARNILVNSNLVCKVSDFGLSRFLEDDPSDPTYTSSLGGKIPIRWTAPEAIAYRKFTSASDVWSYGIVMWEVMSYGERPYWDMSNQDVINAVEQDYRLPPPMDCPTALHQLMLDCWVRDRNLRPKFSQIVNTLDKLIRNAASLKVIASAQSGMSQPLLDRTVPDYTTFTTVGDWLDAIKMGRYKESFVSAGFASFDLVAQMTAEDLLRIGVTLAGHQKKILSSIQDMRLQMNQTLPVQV", "conditions": "EPHB3, ZLYTE, ATP Km app"}, "off-target kinases [5]": {"target": "off-target kinases (Homo sapiens, UniProt Q16513)", "sequence (Q16513 whole entry)": "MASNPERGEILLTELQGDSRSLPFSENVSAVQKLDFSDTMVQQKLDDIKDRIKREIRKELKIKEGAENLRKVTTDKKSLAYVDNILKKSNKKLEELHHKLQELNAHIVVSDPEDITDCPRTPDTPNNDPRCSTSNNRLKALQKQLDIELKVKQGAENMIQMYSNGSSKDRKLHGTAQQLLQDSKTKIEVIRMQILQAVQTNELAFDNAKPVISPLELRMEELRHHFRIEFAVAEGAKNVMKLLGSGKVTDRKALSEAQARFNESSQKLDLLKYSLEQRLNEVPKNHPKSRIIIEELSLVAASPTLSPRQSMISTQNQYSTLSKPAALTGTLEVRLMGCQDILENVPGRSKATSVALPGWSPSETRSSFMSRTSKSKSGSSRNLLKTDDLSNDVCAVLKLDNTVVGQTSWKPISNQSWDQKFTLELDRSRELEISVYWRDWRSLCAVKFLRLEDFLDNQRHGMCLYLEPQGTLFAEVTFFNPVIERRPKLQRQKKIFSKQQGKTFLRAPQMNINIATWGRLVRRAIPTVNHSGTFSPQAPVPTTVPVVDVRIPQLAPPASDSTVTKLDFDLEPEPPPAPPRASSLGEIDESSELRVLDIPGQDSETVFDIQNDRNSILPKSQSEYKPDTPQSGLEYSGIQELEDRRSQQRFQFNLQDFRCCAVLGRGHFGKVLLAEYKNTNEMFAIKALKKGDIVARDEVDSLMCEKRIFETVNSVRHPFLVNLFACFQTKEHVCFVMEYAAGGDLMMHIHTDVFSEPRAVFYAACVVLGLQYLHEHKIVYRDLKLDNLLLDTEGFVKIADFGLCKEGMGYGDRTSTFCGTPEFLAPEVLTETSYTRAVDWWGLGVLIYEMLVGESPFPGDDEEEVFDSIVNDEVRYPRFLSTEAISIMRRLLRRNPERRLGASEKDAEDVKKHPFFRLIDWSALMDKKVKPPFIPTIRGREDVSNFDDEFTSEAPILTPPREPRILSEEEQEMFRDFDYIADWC", "conditions": "PKN2 (PRK2), LanthaScreen Binding"}, "off-target kinases [6]": {"target": "off-target kinases (Homo sapiens, UniProt Q9P0L2)", "sequence (Q9P0L2 whole entry)": "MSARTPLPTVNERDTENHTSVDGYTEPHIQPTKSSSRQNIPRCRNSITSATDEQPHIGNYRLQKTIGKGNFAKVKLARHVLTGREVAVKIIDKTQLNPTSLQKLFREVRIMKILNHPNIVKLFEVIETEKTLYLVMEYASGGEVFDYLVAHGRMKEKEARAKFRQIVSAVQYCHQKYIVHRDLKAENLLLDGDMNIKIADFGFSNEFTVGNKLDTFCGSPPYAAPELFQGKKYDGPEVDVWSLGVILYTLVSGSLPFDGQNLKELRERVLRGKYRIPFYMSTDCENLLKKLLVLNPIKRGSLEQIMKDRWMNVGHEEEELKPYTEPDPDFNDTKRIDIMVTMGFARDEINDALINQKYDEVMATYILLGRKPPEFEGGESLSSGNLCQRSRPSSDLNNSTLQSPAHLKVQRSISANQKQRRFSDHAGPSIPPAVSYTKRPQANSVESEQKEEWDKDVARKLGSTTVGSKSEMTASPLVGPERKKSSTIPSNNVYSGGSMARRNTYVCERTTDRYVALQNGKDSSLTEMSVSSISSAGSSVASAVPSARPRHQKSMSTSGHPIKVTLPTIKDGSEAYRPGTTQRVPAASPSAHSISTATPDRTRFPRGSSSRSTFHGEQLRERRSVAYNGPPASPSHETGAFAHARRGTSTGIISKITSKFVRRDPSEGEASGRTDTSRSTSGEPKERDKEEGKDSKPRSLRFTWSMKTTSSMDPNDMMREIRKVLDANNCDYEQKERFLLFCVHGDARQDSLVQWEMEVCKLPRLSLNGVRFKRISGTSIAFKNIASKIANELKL", "conditions": "MARK1 (MARK), ATP Km app, ZLYTE"}, "off-target kinases [7]": {"target": "off-target kinases (Homo sapiens, UniProt Q9UQM7)", "sequence (Q9UQM7 whole entry)": "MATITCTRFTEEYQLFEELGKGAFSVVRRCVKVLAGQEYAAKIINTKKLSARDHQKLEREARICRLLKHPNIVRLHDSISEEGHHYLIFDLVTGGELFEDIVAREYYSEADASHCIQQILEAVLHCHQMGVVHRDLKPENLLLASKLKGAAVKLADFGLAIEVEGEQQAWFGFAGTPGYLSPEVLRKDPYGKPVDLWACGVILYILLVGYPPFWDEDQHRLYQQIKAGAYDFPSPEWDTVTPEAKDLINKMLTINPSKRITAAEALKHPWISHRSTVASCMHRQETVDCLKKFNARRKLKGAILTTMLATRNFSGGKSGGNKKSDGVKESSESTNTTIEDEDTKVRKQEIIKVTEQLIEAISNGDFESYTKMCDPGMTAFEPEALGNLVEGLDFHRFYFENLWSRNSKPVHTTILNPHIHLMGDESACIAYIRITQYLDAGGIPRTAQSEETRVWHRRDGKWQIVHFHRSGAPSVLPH"}},
  "note": "Where two headings read alike, the source gives them in different places.",
  "data": [
    {"smiles": "N#Cc1cc(-c2ncnc(Nc3ccc(N4CCN(C5COC5)CC4)cc3)n2)ccc1OC1CCOCC1", "note": "[Compound 1, 5-(4-((4-(4-(oxetan-3-yl)piperazin-1-yl)phenyl)amino)-1,3,5-triazin-2-yl)-2-((tetrahydro-2H-pyran-4-yl)oxy)benzonitrile]", "values": [
      {"measurement": "inhibition", "setting": "off-target kinases [1]; read-out: % Inhibition 1", "result": 5, "unit": "%"},
      {"measurement": "inhibition", "setting": "off-target kinases [1]; read-out: % Inhibition 2", "result": 3, "unit": "%"},
      {"measurement": "inhibition", "setting": "off-target kinases [1]; read-out: % Inhibition Avg", "result": 4, "unit": "%"},
      {"measurement": "inhibition", "setting": "off-target kinases [2]; read-out: % Inhibition 1", "result": 26, "unit": "%"},
      {"measurement": "inhibition", "setting": "off-target kinases [2]; read-out: % Inhibition 2", "result": 34, "unit": "%"},
      {"measurement": "inhibition", "setting": "off-target kinases [2]; read-out: % Inhibition Avg", "result": 30, "unit": "%"},
      {"measurement": "inhibition", "setting": "off-target kinases [3]; read-out: % Inhibition 1", "result": 2, "unit": "%"},
      {"measurement": "inhibition", "setting": "off-target kinases [3]; read-out: % Inhibition 2", "result": 1, "unit": "%"},
      {"measurement": "inhibition", "setting": "off-target kinases [3]; read-out: % Inhibition Avg", "result": 1, "unit": "%"},
      {"measurement": "inhibition", "setting": "off-target kinases [4]; read-out: % Inhibition 1", "result": 3, "unit": "%"},
      {"measurement": "inhibition", "setting": "off-target kinases [4]; read-out: % Inhibition 2", "result": 3, "unit": "%"},
      {"measurement": "inhibition", "setting": "off-target kinases [4]; read-out: % Inhibition Avg", "result": 3, "unit": "%"},
      {"measurement": "inhibition", "setting": "off-target kinases [5]; read-out: % Inhibition 1", "result": 51, "unit": "%"},
      {"measurement": "inhibition", "setting": "off-target kinases [5]; read-out: % Inhibition 2", "result": 52, "unit": "%"},
      {"measurement": "inhibition", "setting": "off-target kinases [5]; read-out: % Inhibition Avg", "result": 51, "unit": "%"},
      {"measurement": "inhibition", "setting": "off-target kinases [6]; read-out: % Inhibition 1", "result": 85, "unit": "%"},
      {"measurement": "inhibition", "setting": "off-target kinases [6]; read-out: % Inhibition 2", "result": 87, "unit": "%"},
      {"measurement": "inhibition", "setting": "off-target kinases [6]; read-out: % Inhibition Avg", "result": 86, "unit": "%"},
      {"measurement": "inhibition", "setting": "off-target kinases [7]; CAMK2A (CaMKII alpha), ZLYTE, ATP Km app, read-out: % Inhibition 1", "result": 4, "unit": "%"},
      {"measurement": "inhibition", "setting": "off-target kinases [7]; CAMK2A (CaMKII alpha), ZLYTE, ATP Km app, read-out: % Inhibition Avg", "result": 2, "unit": "%"},
      {"measurement": "inhibition", "setting": "off-target kinases [7]; read-out: % Inhibition 2", "result": 0, "unit": "%"}
    ]}
  ]
}
